Experiments:
[1] = Hepatotoxicity in C57BL/6 mouse assessed as effect on aspartate aminotransferase level at 0.5 mg/kg, iv administered measured after 7 days; type: toxicity, organism-based; details: in vivo, 168 h, time 7 day
[2] = Hepatotoxicity in C57BL/6 mouse assessed as effect on alkaline phosphatase level at 1 mg/kg, iv administered measured after 7 days; type: toxicity, organism-based; details: in vivo, 168 h, time 7 day
[3] = Metabolic stability in rat microsomes assessed as intrinsic clearance; type: ADME, Microsome; details: read-out: CLH
[4] = Terminal half life in CD rat at 3 mg/kg/day, IV administered measured up to 24 hrs by LC-MS/MS analysis; type: ADME, organism-based; details: in vivo, read-out: beta t1/2 (converted)
[5] = MRT in CD rat plasma at 3 mg/kg/day, IV administered measured up to 24 hrs by LC-MS/MS analysis; type: ADME, organism-based
Mononuclear cell line [6] = type: toxicity, cell-based; details: human, 72 h, 0.01 µM, dose 10 nM
[7] = Metabolic stability in human microsomes assessed as intrinsic clearance; type: ADME, Microsome; details: read-out: CLH
Mononuclear cell line [8] = type: toxicity, cell-based; details: human, 72 h, 0.001 µM, dose 1 nM
[9] = Hepatotoxicity in C57BL/6 mouse assessed as effect on amylase level at 0.5 mg/kg, iv administered measured after 7 days; type: toxicity, organism-based; details: in vivo, 168 h, time 7 day
[10] = Toxicity in C57BL/6 mouse assessed as effect on aspartate aminotransferase level in serum at 0.5 mg/kg, iv measured after 7 days; type: organism-based; details: in vivo, 168 h, time 7 day
[11] = Hepatotoxicity in C57BL/6 mouse assessed as effect on bilirubin level at 10 mg/kg, iv administered measured after 7 days; type: toxicity, organism-based; details: in vivo, 168 h, time 7 day
[12] = Hepatotoxicity in C57BL/6 mouse assessed as effect on aspartate aminotransferase level at 5 mg/kg, iv administered measured after 7 days; type: toxicity, organism-based; details: in vivo, 168 h, time 7 day
[13] = Hepatotoxicity in C57BL/6 mouse assessed as effect on alanine aminotransferase level at 1 mg/kg, iv administered measured after 7 days; type: toxicity, organism-based; details: in vivo, 168 h, time 7 day
[14] = Hepatotoxicity in C57BL/6 mouse assessed as effect on alanine aminotransferase level at 5 mg/kg, iv administered measured after 7 days; type: toxicity, organism-based; details: in vivo, 168 h, time 7 day
[15] = Hepatotoxicity in C57BL/6 mouse assessed as effect on gamma glutamyl transferase level at 0.5 mg/kg, iv administered measured after 7 days; type: toxicity, organism-based; details: in vivo, 168 h, time 7 day
[16] = Hepatotoxicity in C57BL/6 mouse assessed as effect on gamma glutamyl transferase level at 1 mg/kg, iv administered measured after 7 days; type: toxicity, organism-based; details: in vivo, 168 h, time 7 day
[17] = Hepatotoxicity in C57BL/6 mouse assessed as effect on amylase level at 10 mg/kg, iv administered measured after 7 days; type: toxicity, organism-based; details: in vivo, 168 h, time 7 day
[18] = Hepatotoxicity in C57BL/6 mouse assessed as effect on alanine aminotransferase level at 10 mg/kg, iv administered measured after 7 days; type: toxicity, organism-based; details: in vivo, 168 h, time 7 day
[19] = Hepatotoxicity in C57BL/6 mouse assessed as effect on aspartate aminotransferase level at 1 mg/kg, iv administered measured after 7 days; type: toxicity, organism-based; details: in vivo, 168 h, time 7 day
[20] = Hepatotoxicity in C57BL/6 mouse assessed as effect on amylase level at 1 mg/kg, iv administered measured after 7 days; type: toxicity, organism-based; details: in vivo, 168 h, time 7 day
Mononuclear cell line [21] = type: toxicity, cell-based; details: human, 72 h, 10 µM
[22] = Hepatotoxicity in C57BL/6 mouse assessed as effect on alkaline phosphatase level at 0.5 mg/kg, iv administered measured after 7 days; type: toxicity, organism-based; details: in vivo, 168 h, time 7 day
[23] = Hepatotoxicity in C57BL/6 mouse assessed as effect on bilirubin level at 1 mg/kg, iv administered measured after 7 days; type: toxicity, organism-based; details: in vivo, 168 h, time 7 day
[24] = Hepatotoxicity in C57BL/6 mouse assessed as effect on bilirubin level at 5 mg/kg, iv administered measured after 7 days; type: toxicity, organism-based; details: in vivo, 168 h, time 7 day
[25] = Hepatotoxicity in C57BL/6 mouse assessed as effect on alkaline phosphatase level at 5 mg/kg, iv administered measured after 7 days; type: toxicity, organism-based; details: in vivo, 168 h, time 7 day
[26] = Hepatotoxicity in C57BL/6 mouse assessed as effect on aspartate aminotransferase level at 10 mg/kg, iv administered measured after 7 days; type: toxicity, organism-based; details: in vivo, 168 h, time 7 day
[27] = Hepatotoxicity in C57BL/6 mouse assessed as effect on amylase level at 5 mg/kg, iv administered measured after 7 days; type: toxicity, organism-based; details: in vivo, 168 h, time 7 day
[28] = Toxicity in C57BL/6 mouse assessed as effect on aspartate aminotransferase level in serum at 5 mg/kg, iv measured after 7 days; type: organism-based; details: in vivo, 168 h, time 7 day
[29] = Hepatotoxicity in C57BL/6 mouse assessed as effect on alkaline phosphatase level at 10 mg/kg, iv administered measured after 7 days; type: toxicity, organism-based; details: in vivo, 168 h, time 7 day
[30] = Intrinsic clearance in CD rat plasma at 3 mg/kg/day, IV administered measured up to 24 hrs by LC-MS/MS analysis; type: ADME, organism-based; details: in vivo
[31] = Metabolic stability in mouse microsomes assessed as intrinsic clearance; type: ADME, Microsome
[32] = Hepatotoxicity in C57BL/6 mouse assessed as effect on alanine aminotransferase level at 0.5 mg/kg, iv administered measured after 7 days; type: toxicity, organism-based; details: in vivo, 168 h, time 7 day
[33] = Volume of distribution at steady state in CD rat at 3 mg/kg/day, IV administered measured up to 24 hrs by LC-MS/MS analysis; type: ADME, organism-based; details: in vivo, read-out: Vdss
[34] = Hepatotoxicity in C57BL/6 mouse assessed as effect on bilirubin level at 0.5 mg/kg, iv administered measured after 7 days; type: toxicity, organism-based; details: in vivo, 168 h, time 7 day
[35] = AUC (0 to t) in CD rat plasma at 3 mg/kg/day, IV administered measured up to 24 hrs by LC-MS/MS analysis; type: ADME, organism-based; set-up: route intravenous, dose 3 mg/kg/day, time <=24
Mononuclear cell line [36] = type: toxicity, cell-based; details: human, 72 h, 1 µM
[37] = AUC (0 to infinity) in CD rat plasma at 3 mg/kg/day, IV administered measured up to 24 hrs by LC-MS/MS analysis; type: ADME, organism-based; set-up: route intravenous, dose 3 mg/kg/day, time <=24
[38] = Hepatotoxicity in C57BL/6 mouse assessed as effect on gamma glutamyl transferase level at 10 mg/kg, iv administered measured after 7 days; type: toxicity, organism-based; details: in vivo, 168 h, time 7 day
[39] = Hepatotoxicity in C57BL/6 mouse assessed as effect on gamma glutamyl transferase level at 5 mg/kg, iv administered measured after 7 days; type: toxicity, organism-based; details: in vivo, 168 h, time 7 day

In the case of `COc1ccc(NC(=O)c2cccc(-c3nc(NC(P(=O)(O)O)P(=O)(O)O)c4ccsc4n3)c2)cc1F`, the Activity [1] is reported as “Non-Toxic”, the Activity [2] is reported as “Non-Toxic” and the microsomal CLint [3] is reported as 13 µL/min/mg. The half-life [4] was 5.34 h, the MRT [5] was 6.21 h and the Activity (Mononuclear cell line [6]) was 77.2%. For the same compound, the microsomal CLint [7] was 7 µL/min/mg, the Activity (Mononuclear cell line [8]) was 79.7% and the Activity [9] was “Non-Toxic”. The Activity [10] was “Non-Toxic”, the Activity [11] was “Non-Toxic” and the Activity [12] was “Non-Toxic”. The Activity [13] was “Non-Toxic”, the Activity [14] was “Non-Toxic” and the Activity [15] was “Non-Toxic”. For the same compound, the Activity [16] was “Non-Toxic”, the Activity [17] was “Non-Toxic” and the Activity [18] was “Non-Toxic”. The Activity [19] was “Non-Toxic”, the Activity [20] was “Non-Toxic” and the Activity (Mononuclear cell line [21]) was 21.3%. The Activity [22] was “Non-Toxic”, the Activity [23] was “Non-Toxic” and the Activity [24] was “Non-Toxic”. For the same compound, the Activity [25] was “Non-Toxic”, the Activity [26] was “Non-Toxic” and the Activity [27] was “Non-Toxic”. For the same compound, the Activity [28] was “Non-Toxic”, the Activity [29] was “Non-Toxic” and the CL [30] was 0.567 mL/min/kg. For the same compound, the CLH [31] was 27 µL/min/mg, the Activity [32] was “Non-Toxic” and the Vd [33] was 0.211 L/kg. The Activity [34] was “Non-Toxic”, the AUC(0-t) at 24 h [35] was 149 µM·h and the Activity (Mononuclear cell line [36]) was 17.8%. The AUC(0-inf) [37] was 155 µM·h, the Activity [38] was “Non-Toxic” and the Activity [39] was “Non-Toxic”.

Source: ChEMBL document CHEMBL5046266, “Synthesis and Evaluation of Structurally Diverse C-2-Substituted Thienopyrimidine-Based Inhibitors of the Human Geranylgeranyl Pyrophosphate Synthase” (J Med Chem, 2022)
